Laboratory results as given in US20130178448A1, “Treatment of Respiratory Disorders” (priority 2010, published 2013).

Experiments:
[1] = system: Influenza A/PR/8/34 (H1N1 virus); assay: In vivo mouse viral challenge (weight loss and survival of influenza-challenged mice); parameters: species or system mice (C57BLK/6); conditions: intraperitoneal, 335.6 μg/animal in 10 μl DMSO
Protocol: Five groups (n=10) of C57BLK/6 female mice (6-7 weeks old), were divided into five experimental groups containing ten animals each. On day 1, animals received an intranasal lethal dose (50 μl total, 25 μl nostril) of Influenza A/PR/8/34 under halothane induced anaesthesia.
The animals were weighed, and monitored for signs of infection daily up to day 6 when all animals were culled. FIGS. 1-4 represent the average weight loss per group and animal survival.
Using standard techniques as described above, mice were infected with a H1N1 virus which was allowed to become established in each of the subjects. Each test mouse was then treated with ibuprofen, either intraperitoneally (in DMSO) or orally (in the lipid/ethanol formulation, BC1054). The weight loss of both treated and untreated mice was then determined.

[2] = rat, in vivo, 4 h
Protocol: Vehicle and test compounds (Groups 1-7) were each administered orally (PO) to fasted rats. Each group included five animals. […] The animals were sacrificed four hours after dosing and gastric mucosal lesions were scored. A score of 50 percent or more (≧50%) relative to the aspirin-treated group (150 mg/kg PO, set as 100%) is considered positive in gastric irritation and is shown in parenthesis; and
Seven groups of rats, each group consisting of five animals, were each administered orally (PO) with test formulations and control compounds. […] Group 3 animals were treated with 150 mg/kg aspirin, and Group 4 animals were treated with 100 mg/kg of ibuprofen dissolved in 1% CMC vehicle.
The animals were sacrificed four hours after dosing with the test compound (or control vehicle) and gastric mucosal lesions were then scored according to the following criteria: 0=no lesions, 1=hyperemia, 2=one or two slight lesions, 3=more than two slight lesions or severe lesions, 4=very severe lesions (Herrerias et al., Dig. Dis. Sci., 2003). A score of 50 percent or more (≧50%) relative to the aspirin-treated group (150 mg/kg PO, set as 100%) was considered positive in gastric irritation and is shown in parenthesis in the table of FIG. 5.

Which results are given for `CC(C)Cc1ccc(C(C)C(=O)O)cc1` (stereo not drawn) [ibuprofen]?
percentage survival rate compared with control mice ([1]; single dose day 3, especially after day four, FIG. 2): lower percentage survival rate than the control mice; higher reduction in weight loss than in the control mice ([1]; single dose day 3 post-challenge, vs vehicle control, FIG. 1): ~30%

Which “ulceration score relative to aspirin (150 mg/kg PO, set as 100%)” value [2] does the source give for `CC(=O)Oc1ccccc1C(=O)O` [Aspirin] here?
Its value is 100%.
